Like-named read-outs stand apart in the source and are kept apart here.
Legend:
[1] = target: T1, BTK enzyme (full-length BTK, hBTK) (Homo sapiens, UniProt Q06187); assay: Btk enzyme activity assay (LANCE TR-FRET); type: biochemical; conditions: 50 pM hBTK, 25 μM ATP, 60 minute compound and enzyme incubation, read-out: BTK binding IC50
T1 construct: recombinant protein from baculovirus-transfected Sf9 cells: full-length BTK, 6HIS-tag cleaved; 6HIS (cleaved yes); made in house; host or cells: baculovirus-transfected Sf9 cells
T1 sequence (Q06187 whole entry): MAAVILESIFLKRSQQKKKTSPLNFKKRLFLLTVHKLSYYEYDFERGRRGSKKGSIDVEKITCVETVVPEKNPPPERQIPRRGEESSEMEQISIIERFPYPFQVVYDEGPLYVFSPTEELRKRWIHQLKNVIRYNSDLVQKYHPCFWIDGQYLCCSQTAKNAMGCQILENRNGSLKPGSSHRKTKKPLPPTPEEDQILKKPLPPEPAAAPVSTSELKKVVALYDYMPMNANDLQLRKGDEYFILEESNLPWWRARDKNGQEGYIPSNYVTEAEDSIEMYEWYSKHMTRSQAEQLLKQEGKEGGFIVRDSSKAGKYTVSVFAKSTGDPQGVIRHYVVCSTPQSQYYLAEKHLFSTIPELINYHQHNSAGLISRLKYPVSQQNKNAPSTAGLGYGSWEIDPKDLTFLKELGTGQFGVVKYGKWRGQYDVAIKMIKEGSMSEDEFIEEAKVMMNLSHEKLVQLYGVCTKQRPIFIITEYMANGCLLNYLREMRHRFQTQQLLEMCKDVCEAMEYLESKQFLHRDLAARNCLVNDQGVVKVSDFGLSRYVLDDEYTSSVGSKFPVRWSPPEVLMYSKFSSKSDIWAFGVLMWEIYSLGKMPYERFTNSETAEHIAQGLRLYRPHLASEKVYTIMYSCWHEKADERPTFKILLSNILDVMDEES
Experimental: BTK enzymatic activity was determined with the LANCE (Lanthanide Chelate Excite) TR-FRET (Time-resolved fluorescence resonance energy transfer) assay. […] To each well of a black non-binding surface Corning 384-well microplate (Corning Catalog #3820), 5 nL of compound (2000 fold dilution in final assay volume of 10 μL) was dispensed, followed by the addition of 7.5 μL of 1× kinase buffer (50 mM Hepes 7.5, 10 mM MgCl2, 0.01% Brij-35, 1 mM EGTA, 0.05% BSA & 1 mM DTT) containing 5.09 pg/μL (66.67 pM) of BTK enzyme (recombinant protein from baculovirus-transfected Sf9 cells: full-length BTK, 6HIS-tag cleaved). Following a 60 minute compound and enzyme incubation, each reaction was initiated by the addition of 2.5 μL 1× kinase buffer containing 8 μM biotinylated “A5” peptide (Biotin-[…]-NH2) (SEQ.ID.NO.: 1), and 100 μM ATP. The final reaction in each well of 10 μL consists of 50 pM hBTK, 2 μM biotin-A5-peptide, and 25 μM ATP. Phosphorylation reactions were allowed to proceed for 120 minutes. Reactions were immediately quenched by the addition of 20 uL of 1× quench buffer (15 mM EDTA, 25 mM Hepes 7.3, and 0.1% Triton X-100) containing detection reagents (0.626 nM of LANCE-Eu-W1024-anti-phosphoTyrosine antibody, PerkinElmer and 86.8 nM of Streptavidin-conjugated Dylight 650, Dyomics/ThermoFisher Scientific). After 60 minutes incubation with detection reagents, reaction plates were read on a PerkinElmer EnVision plate reader using standard TR-FRET protocol. Briefly, excitation of donor molecules (Eu-chelate:anti-phospho-antibody) with a laser light source at 337 nm produces energy that can be transferred to Dylight-650 acceptor molecules if this donor:acceptor pair is within close proximity. Fluorescence intensity at both 665 nm (acceptor) and 615 nm (donor) are measured and a TR-FRET ratio calculated for each well (acceptor intensity/donor intensity). IC50 values were determined by 4 parameter robust fit of TR-FRET ratio values vs. (Log10) compound concentrations.
The following Table 2 provides specific IC50 values for all the examples. The IC50 values set forth below were determined according to Assay method described above.

[2] = system: adenosine uptake into HeLa cells; assay: [3H]Adenosine uptake assay in HeLa cells; type: cell-based; conditions: 60 minutes uptake, read-out: ADU inhibition IC50 (adenosine uptake inhibition potency)
Experimental: Compounds were also screened in an adenosine uptake functional cellular assay using the protocol described below.
Adenosine uptake activity was determined by monitoring the accumulation of tritiated adenosine into HeLa cells (ATCC catalog # CCL-2) using a PMT-based radiometric detection instrument. In this assay, the potency (IC50) of each compound was determined from a ten point (1:3 serial dilution; final compound concentration range in assay from 10 μM to 0.032 nM) titration curve using the following outlined procedure. To each well of a 96-well CytoStar-T scintillating microplate (Perkin Elmer Catalog # RPNQ0163), 25 000 HeLa cells in 100 μL of growth medium comprising: Minimum Essential Media (Life Technologies Catalog # 11095-080)+10% (v/v) foetal bovine serum (FBS; Sigma Aldrich Catalog # F2442) was added. These cells were incubated overnight at 37° C. in a humidified atmosphere with 5% (v/v) CO2. After this time the growth medium was removed and replaced with 40 μL assay medium comprising: Hanks balanced salts solution (HBSS; Thermo Fisher Catalog # SH30268.01)+5% (v/v) FBS. Compound stock solutions in DMSO were diluted in assay medium to 2.5× final compound concentration maintaining a constant DMSO concentration of 0.25% (v/v). 40 μL of compound in assay medium was dispensed into individual wells of the Cytostar-T plates and the plates were incubated for 30 minutes under ambient laboratory conditions. Following this incubation, 20 μL of 500 nM [^3H]adenosine (American Radiolabeled Chemicals Inc. Catalog # ART0287) in assay medium was added and incubated for a further 60 minutes under ambient laboratory conditions. The amount of radiolabel accumulation was then determined using a Perkin Elmer Topcount NXT microplate reader. In brief, HeLa cells adhere to the bottom of the Cytostar-T plate, uptake of [^3H]adenosine into these cells brings the radiolabel into sufficient proximity to excite the scintillant in the base of the plates. These events are captured by single PMT, time-resolved coincidence counting. IC50 values were determined by 4 parameter robust fit of counts per second values vs. (Log10) compound concentrations.

IC50 [1] | IC50 ([2]; Homo sapiens, HeLa) | IC50 [2] | Structure (SMILES)
11.8 nM | 895 nM |  | CCOc1cc(C(=O)Nc2cc(C(F)(F)F)ccn2)ccc1-c1nc([C@H]2CC[C@H]3N(C2)C(=O)C2(CC2)C3(F)F)n2ccnc(N)c12 [Compound 2, 4-(8-amino-3-((6′S,8a′R)-1′,1′-difluoro-3′-oxohexahydro-1′H-spiro[cyclopropane-1,2′-indolizin]-6′-yl)imidazo[1,5-a]pyrazin-1-yl)-3-ethoxy-N-(4-(trifluoromethyl)pyridin-2-yl)benzamide]
1 nM |  | 1330 nM | CCOc1cc(C(=O)Nc2cc(C(F)(F)F)ccn2)ccc1-c1nc([C@@H]2CC[C@@H]3N(C2)C(=O)C2(CC2)C3(F)F)n2ccnc(N)c12 [Compound 3, 4-(8-amino-3-((6′R,8a′S)-1′,1′-difluoro-3′-oxohexahydro-1′H-spiro[cyclopropane-1,2′-indolizin]-6′-yl)imidazo[1,5-a]pyrazin-1-yl)-3-ethoxy-N-(4-(trifluoromethyl)pyridin-2-yl)benzamide]
1.47 nM | 912 nM |  | CCOc1cc(C(=O)Nc2cc(C(F)(F)F)ccn2)ccc1-c1nc([C@@H]2CC[C@H]3C(=O)C4(CC4)C(=O)N3C2)n2ccnc(N)c12 [Compound 5, 4-{8-amino-3-[(6′R,8a′S)-1′,3′-dioxohexahydrospiro[cyclopropane-1,2′-indolizin]-6′-yl]imidazo[1,5-a]pyrazin-1-yl}-3-ethoxy-N-[4-(trifluoromethyl)pyridin-2-yl]benzamide]
0.701 nM | 1990 nM |  | CCOc1cc(C(=O)Nc2cc(C(F)(F)F)ccn2)ccc1-c1nc([C@@H]2CC[C@H]3[C@@H](O)C4(CC4)C(=O)N3C2)n2ccnc(N)c12 [Compound 11, 4-{8-amino-3-[(1′S,6′R,8a′S)-1′-hydroxy-3′-oxohexahydrospiro[cyclopropane-1,2′-indolizin]-6′-yl]imidazo[1,5-a]pyrazin-1-yl}-3-ethoxy-N-[4-(trifluoromethyl)pyridin-2-yl]benzamide]
1.28 nM | 828 nM |  | CCOc1cc(C(=O)Nc2cc(C(F)(F)F)ccn2)ccc1-c1nc([C@@H]2CC[C@H]3[C@@H](OC)C4(CC4)C(=O)N3C2)n2ccnc(N)c12 [Compound 14, 4-(8-amino-3-((1′S,6′R,8a′S)-1′-methoxy-3′-oxohexahydro-1′H-spiro[cyclopropane-1,2′-indolizin]-6′-yl)imidazo[1,5-a]pyrazin-1-yl)-3-ethoxy-N-(4-(trifluoromethyl)pyridin-2-yl)benzamide]
0.462 nM | 1110 nM |  | CCOc1cc(C(=O)Nc2cc(C(F)(F)F)ccn2)ccc1-c1nc([C@@H]2CC[C@H]3CN4CCC[C@@H]4C(=O)N3C2)n2ccnc(N)c12 [Compound 15, 4-{8-amino-3-[(5aS,8R,11aR)-11-oxodecahydro-1H-pyrido[1,2-a]pyrrolo[1,2-d]pyrazin-8-yl]imidazo[1,5-a]pyrazin-1-yl}-3-ethoxy-N-[4-(trifluoromethyl)pyridin-2-yl]benzamide]
0.489 nM | 1670 nM |  | CCOc1cc(C(=O)Nc2cc(C(F)(F)F)ccn2)ccc1-c1nc([C@@H]2CC[C@H]3CN4CCC[C@H]4C(=O)N3C2)n2ccnc(N)c12 [Compound 16, 4-{8-amino-3-[(5aS,8R,11aS)-11-oxodecahydro-1H-pyrido[1,2-a]pyrrolo[1,2-d]pyrazin-8-yl]imidazo[1,5-a]pyrazin-1-yl}-3-ethoxy-N-[4-(trifluoromethyl)pyridin-2-yl]benzamide]
0.501 nM | 1700 nM |  | CCOc1cc(C(=O)Nc2cc(C(F)(F)F)ccn2)ccc1-c1nc([C@@H]2CC[C@H]3CNC4(CCC4)C(=O)N3C2)n2ccnc(N)c12 [Compound 17, 4-{8-amino-3-[(7′R,9a′S)-4′-oxohexahydro-2′H-spiro[cyclobutane-1,3′-pyrido[1,2-a]pyrazin]-7′-yl]imidazo[1,5-a]pyrazin-1-yl}-3-ethoxy-N-[4-(trifluoromethyl)pyridin-2-yl]benzamide]

Continued, compound first:

Structure (SMILES) | IC50 [1] | IC50 ([2]; Homo sapiens, HeLa) | IC50 [2]
Nc1nccn2c([C@@H]3CC[C@H]4C(=O)C5(CC5)C(=O)N4C3)nc(-c3ccc(C(=O)Nc4cc(C(F)(F)F)ccn4)cc3)c12 [Compound 6, 4-{8-amino-3-[(6′R,8a′S)-1′,3′-dioxohexahydrospiro[cyclopropane-1,2′-indolizin]-6′-yl]imidazo[1,5-a]pyrazin-1-yl}-N-[4-(trifluoromethyl)pyridin-2-yl]benzamide] | 0.857 nM | 152 nM | 
Nc1nccn2c([C@@H]3CC[C@H]4C(=O)C5(CC5)C(=O)N4C3)nc(-c3ccc(C(=O)Nc4cc(C(F)(F)F)ccn4)cc3F)c12 [Compound 7, 4-{8-amino-3-[(6′R,8a′S)-1′,3′-dioxohexahydrospiro[cyclopropane-1,2′-indolizin]-6′-yl]imidazo[1,5-a]pyrazin-1-yl}-3-fluoro-N-[4-(trifluoromethyl)pyridin-2-yl]benzamide] | 0.425 nM | 173 nM | 
Cc1ccnc(NC(=O)c2ccc(-c3nc([C@@H]4CC[C@H]5C(=O)C6(CC6)C(=O)N5C4)n4ccnc(N)c34)cc2)c1 [Compound 8, 4-{8-amino-3-[(6′R,8a′S)-1′,3′-dioxohexahydrospiro[cyclopropane-1,2′-indolizin]-6′-yl]imidazo[1,5-a]pyrazin-1-yl}-N-(4-methylpyridin-2-yl)benzamide] | 2.07 nM | 50.9 nM | 
Nc1nccn2c([C@@H]3CC[C@H]4C(=O)C5(CC5)C(=O)N4C3)nc(-c3ccc(C(=O)Nc4cc(C5CC5)ccn4)cc3)c12 [Compound 9, 4-{8-amino-3-[(6′R,8a′S)-1′,3′-dioxohexahydrospiro[cyclopropane-1,2′-indolizin]-6′-yl]imidazo[1,5-a]pyrazin-1-yl}-N-(4-cyclopropylpyridin-2-yl)benzamide] | 1.62 nM | 183 nM | 
Nc1nccn2c([C@@H]3CC[C@H]4[C@@H](O)C5(CC5)C(=O)N4C3)nc(-c3ccc(C(=O)Nc4cc(C(F)(F)F)ccn4)cc3)c12 [Compound 10, 4-{8-amino-3-[(1′S,6′R,8a′S)-1′-hydroxy-3′-oxohexahydrospiro[cyclopropane-1,2′-indolizin]-6′-yl]imidazo[1,5-a]pyrazin-1-yl}-N-[4-(trifluoromethyl)pyridin-2-yl]benzamide] | 0.952 nM | 861 nM | 
Nc1nccn2c([C@@H]3CC[C@H]4[C@@H](O)C5(CC5)C(=O)N4C3)nc(-c3ccc(C(=O)Nc4cc(C(F)(F)F)ccn4)cc3F)c12 [Compound 12, 4-(8-amino-3-((1′S,6′R,8a′S)-1′-hydroxy-3′-oxohexahydro-1′H-spiro[cyclopropane-1,2′-indolizin]-6′-yl)imidazo[1,5-a]pyrazin-1-yl)-3-fluoro-N-(4-(trifluoromethyl)pyridin-2-yl)benzamide] | 0.385 nM | 963 nM | 
Nc1nccn2c([C@@H]3CC[C@H]4C(O)C5(CC5)C(=O)N4C3)nc(-c3ccc(C(=O)Nc4cc(C5CC5)ccn4)cc3)c12 (stereo partly drawn) [Compound 13, 4-(8-amino-3-((1′S,6′R,8a′S)-1′-hydroxy-3′-oxohexahydro-1′H-spiro[cyclopropane-1,2′-indolizin]-6′-yl)imidazo[1,5-a]pyrazin-1-yl)-N-(4-cyclopropanepyridin-2-yl)benzamide] | 1.22 nM | 610 nM | 

Reference: patent publication US10130630B2, “BTK inhibitors” (MERCK SHARP & DOHME CORP., priority 2014, dated 2018)
